Key:
[1] = Shuttle molecules tested in LiFePO4/graphite and LiFePO4/Li4/3Ti5/3O4 coin cells, C/10, 100% overcharge; details: 0.1M shuttle, 0.7 M LiBOB PC:DMC:EC:DEC 1:2:1:2
Method: A variety of shuttle molecules (obtained from Aldrich Chemical Co. and used without further purification) were tested in LiFePO4/graphite and LiFePO4/Li4/3Ti5/3O4 coin cells. The LiFePO4 was obtained from Phostech Lithium as in Example 1 and the Li4/3Ti5/3O4 was obtained from NEI Corp. (Piscataway, N.J., USA). The graphite used was mesocarbon microbeads (MCMB) heat treated to near 2650° C. Electrodes were made from the active materials 10% by weight Super S carbon black (MMM Carbon, Belgium) and 10% by weight PVDF binder. LiFePO4 and Li4/3Ti5/3O4 electrodes were coated on aluminum foil and MCMB electrodes were coated on copper foil. […] The electrolyte was 0.7 M LiBOB in a 1:2:1:2 by volume mixture of PC:DMC:EC:DEC. The shuttle molecule was added in a concentration of 0.1M. Coin cells were charged using currents corresponding to a normal recharge in 10 hours (C/10) to 200% of their normal charge capacity (100% overcharge) or until a specified upper cut-off potential (normally 4.9V versus Li/Li^+) was reached, which ever occurred first and tested until the shuttle ceased to function. Four shuttles were employed, namely 1,3,5-tri-t-butyl-2-methoxybenzene (Example 9), 5-t-butyl-1,3-dinitro-2-methoxybenzene (Example 10), 2-t-butyl-4,6-dinitro-5-methylanisole (Example 11) and 4-t-butyl-2,6-diaminoanisole (Comparison Example 10). The coin cell test results are set out below in Table 2: […]

[2] = Extended shuttle-protected overcharge cycling, LiFePO4/graphite cell, 100% overcharge each cycle; details: 0.2 M shuttle, 0.5 M LiBOB in 1:2 PC:DEC
Method: Further testing was carried out to evaluate currents up to 1/3 of Imax in extended shuttle-protected overcharge tests. […] The shuttle plateau is near 3.9 V because the graphite electrode is near 0 V vs Li/Li^+ when the Li-ion coin cell is fully charged. The charging current was 0.55 mA, which corresponds to about a C/2-rate for the electrodes of this cell. The shuttle continues to perform well after 200 charge discharge cycles. […] In this case, the shuttle was able to protect against overcharge for about 190 cycles, followed by disappearance of the shuttle effect over the next few cycles. […] The loss of shuttle effect at high C rates may have been due to the Li4/3Ti5/3O4 negative electrode dropping below its plateau potential (1.55 V) before reaching the fully discharged state.

[3] = Cyclic voltammetry shuttle diffusion constant; type: physicochemical
Method: Further testing was carried out in coin cells made using 0.2 M 2,5-di-tert-butyl-1,4-dimethoxybenzene and 0.5 M LiBOB in 1:2 PC:DEC. […] For this cell the shuttle was singly ionized, the initially estimated electrode area was 1.3 cm^2 and the initially estimated electrode spacing was defined by the 25 μm separator. Based on measurements of the shuttle potential versus applied current, the effective diffusion constant D was estimated to be about 7×10^−7 cm^2/sec, and the maximum current density carried by the shuttle was estimated to be about 2.3 mA/cm^2. Using cyclic voltammetry, the shuttle diffusion constant was determined to be 1.6×10^−6 cm^2/sec. […] Thus, the effective area was less than 1.3 cm^2 and the effective length was greater than 25 μm.

[4] = Maximum solubility of shuttle in electrolyte, determined visually; type: physicochemical; details: in the Example 1 and Example 2 electrolyte (0.7 M LiBOB EC:DEC 1:2)
Method: Solubility limits were determined visually, after extended mixing.

[5] = Shuttle potential versus sequentially increased charge current in coin cell (Imax)
Excerpt: According to the literature (Richardson et al., J. Electrochem. Soc. Vol. 143, 3992 (1996)) the maximum shuttle current for a singly ionized shuttle is given by Imax=FAD C/d, [1] where F is Faraday's number, A is the electrode area, D is an effective diffusion constant of the shuttle species (taking into account both oxidized and reduced forms of the shuttle), C is the total concentration of the shuttle species and d is the distance between the electrodes. To obtain a large shuttle current, the electrolyte should impart a large diffusion constant, D, to the shuttle and support a high shuttle concentration, C. The shuttle diffusion constant usually will increase as the electrolyte solution viscosity decreases. A variety of charge carrying media may be employed in the electrolyte. Exemplary media are liquids or gels capable of solubilizing sufficient quantities of the lithium salt and the redox chemical shuttle so that a suitable quantity of charge can be transported from the positive electrode to negative electrode. […]
Further testing was carried out in coin cells made using 0.2 M 2,5-di-tert-butyl-1,4-dimethoxybenzene and 0.5 M LiBOB in 1:2 PC:DEC. […] Using cyclic voltammetry, the shuttle diffusion constant was determined to be 1.6×10^−6 cm^2/sec. […]

COc1c(N)cc(C(C)(C)C)cc1N [Comp. Ex. 5, 4-t-butyl-2,6-diaminoanisole, reference compound]
Potential V, Li/Li^+ [1]: 4.4 V

COc1c([N+](=O)[O-])cc(C(C)(C)C)cc1[N+](=O)[O-] [Example 10, 5-t-butyl-1,3-dinitro-2-methoxybenzene]
Potential V, Li/Li^+ [1]: 4.9 V

COc1c(C(C)(C)C)cc(C(C)(C)C)cc1C(C)(C)C [Example 9, 1,3,5-tri-t-butyl-2-methoxybenzene]
Potential V, Li/Li^+ [1]: 4.4 V

COc1cc(C(C)(C)C)c(OC)cc1C(C)(C)C [2,5-di-tert-butyl-1,4-dimethoxybenzene]
shuttle plateau [2]: ~3.9 V | shuttle diffusion constant [3]: 1.6×10^−6 cm^2/sec | maximum room temperature solubility [4]: ~90 mM | potential at which the shuttle became oxidized at the LiFePO4 positive electrode ([5]; 0.2 M shuttle, 0.5 M LiBOB in 1:2 PC:DEC): about 3.9 V vs Li/Li^+ | effective diffusion constant D (estimated from shuttle potential versus applied current) ([5]; electrode area 1.3 cm^2, 25 μm separator): about 7×10^−7 cm^2/sec

COc1c(C(C)(C)C)cc([N+](=O)[O-])c(C)c1[N+](=O)[O-] [Example 11, 2-t-butyl-4,6-dinitro-5-methylanisole]
Potential V, Li/Li^+ [1]: 4.9 V

— patent US20050221196A1, “Redox shuttle for rechargeable lithium-ion cell” (priority 2004, published 2005)
